In PubChem BioAssay AID1259407 (Chemical Carcinogenesis Research Information System (CCRIS), 2018):
Calls of active or inactive are those of the source. The rule behind the calls is not given here.

System: CCRIS mutagenicity, Ames/micronucleus/aberration tests
Assay: CCRIS mutagenicity studies

Compound: Cc1cc(-c2ccc(N)c(C)c2)ccc1N
- mutagenic call (End Point: IN VITRO CHROMOSOMAL ABERRATIONS, Test System: CHINESE HAMSTER OVARY CELLS, Metabolic Activation: NONE): active; positive
- mutagenic call (End Point: IN VITRO CHROMOSOMAL ABERRATIONS, Test System: CHINESE HAMSTER OVARY CELLS, Metabolic Activation: RAT, LIVER, S-9, AROCLOR 1254): active; positive
- mutagenic call (End Point: IN VITRO CHROMOSOMAL ABERRATIONS, Test System: CHL CELLS, Metabolic Activation: NONE): active; positive (structural changes)
- mutagenic call (End Point: IN VITRO CHROMOSOMAL ABERRATIONS, Test System: CHL CELLS, Metabolic Activation: RAT, LIVER, S-9, SODIUM PHENOBARBITAL AND 5,6-BENZOFLAVONE): inactive; negative; authors report equivocal results for structural changes at the highest
- mutagenic call (Test System: AMES SALMONELLA TYPHIMURIUM, Strain/Indicator: SV50, Metabolic Activation: NONE, Method: PREINCUBATION (PRIVAL METHOD)): inactive; negative
- mutagenic call (Test System: AMES SALMONELLA TYPHIMURIUM, Strain/Indicator: SV50, Metabolic Activation: RAT, LIVER, S-9, AROCLOR 1254, Method: STANDARD PLATE): inactive; negative
- mutagenic call (Test System: AMES SALMONELLA TYPHIMURIUM, Strain/Indicator: TA97, Metabolic Activation: HAMSTER, LIVER, S-9, AROCLOR 1254 (10%), Method: PREINCUBATION): inactive; negative
- mutagenic call (Test System: AMES SALMONELLA TYPHIMURIUM, Strain/Indicator: TA97, Metabolic Activation: HAMSTER, LIVER, S-9, AROCLOR 1254, Method: PREINCUBATION): inactive; negative
- mutagenic call (Test System: AMES SALMONELLA TYPHIMURIUM, Strain/Indicator: TA97, Metabolic Activation: NONE, Method: PREINCUBATION): inactive; negative
- mutagenic call (Test System: AMES SALMONELLA TYPHIMURIUM, Strain/Indicator: TA97, Metabolic Activation: RAT, LIVER, S-9, AROCLOR 1254 (10%), Method: PREINCUBATION): inactive; negative
- mutagenic call (Test System: AMES SALMONELLA TYPHIMURIUM, Strain/Indicator: TA97, Metabolic Activation: RAT, LIVER, S-9, AROCLOR 1254, Method: PREINCUBATION): inactive; negative
- mutagenic call (Test System: AMES SALMONELLA TYPHIMURIUM, Strain/Indicator: TA98(1,8-DNP6), Metabolic Activation: NONE, Method: STANDARD PLATE): inactive; negative
- mutagenic call (Test System: AMES SALMONELLA TYPHIMURIUM, Strain/Indicator: TA98(1,8-DNP6), Metabolic Activation: S-9, Method: STANDARD PLATE): active; positive
- mutagenic call (Test System: AMES SALMONELLA TYPHIMURIUM, Strain/Indicator: TA98, Metabolic Activation: HAMSTER, LIVER, S-9, AROCLOR 1254 (10%), Method: PREINCUBATION): active; positive
- mutagenic call (Test System: AMES SALMONELLA TYPHIMURIUM, Strain/Indicator: TA98, Metabolic Activation: HAMSTER, LIVER, S-9, AROCLOR 1254, Method: PREINCUBATION): active; positive
- mutagenic call (Test System: AMES SALMONELLA TYPHIMURIUM, Strain/Indicator: TA98, Metabolic Activation: NONE, Method: PREINCUBATION): inactive; negative
- mutagenic call (Test System: AMES SALMONELLA TYPHIMURIUM, Strain/Indicator: TA98, Metabolic Activation: NONE, Method: STANDARD PLATE): inactive; negative
- mutagenic call (Test System: AMES SALMONELLA TYPHIMURIUM, Strain/Indicator: TA98, Metabolic Activation: RAT LIVER S-9, AROCLOR 1254, Method: PREINCUBATION): active; positive
- mutagenic call (Test System: AMES SALMONELLA TYPHIMURIUM, Strain/Indicator: TA98, Metabolic Activation: RAT LIVER S-9, PHENOBARBITAL AND BETA-NAPHTHOFLAVONE, Method: PREINCUBATION): active; positive
- mutagenic call (Test System: AMES SALMONELLA TYPHIMURIUM, Strain/Indicator: TA98, Metabolic Activation: RAT, LIVER, S-9, AROCLOR 1254 (10%), Method: PREINCUBATION): active; positive
- mutagenic call (Test System: AMES SALMONELLA TYPHIMURIUM, Strain/Indicator: TA98, Metabolic Activation: RAT, LIVER, S-9, AROCLOR 1254, Method: PREINCUBATION): active; positive
- mutagenic call (Test System: AMES SALMONELLA TYPHIMURIUM, Strain/Indicator: TA98, Metabolic Activation: RAT, LIVER, S-9, AROCLOR 1254, Method: STANDARD PLATE): active; positive
- mutagenic call (Test System: AMES SALMONELLA TYPHIMURIUM, Strain/Indicator: TA98, Metabolic Activation: S-9, Method: STANDARD PLATE): active; positive
- mutagenic call (Test System: AMES SALMONELLA TYPHIMURIUM, Strain/Indicator: TA100, Metabolic Activation: HAMSTER, LIVER, S-9, AROCLOR 1254 (10%), Method: PREINCUBATION): inactive; negative
- mutagenic call (Test System: AMES SALMONELLA TYPHIMURIUM, Strain/Indicator: TA100, Metabolic Activation: HAMSTER, LIVER, S-9, AROCLOR 1254, Method: PREINCUBATION): inactive; negative
- mutagenic call (Test System: AMES SALMONELLA TYPHIMURIUM, Strain/Indicator: TA100, Metabolic Activation: NONE, Method: PREINCUBATION): inactive; negative
- mutagenic call (Test System: AMES SALMONELLA TYPHIMURIUM, Strain/Indicator: TA100, Metabolic Activation: NONE, Method: STANDARD PLATE): inactive; negative
- mutagenic call (Test System: AMES SALMONELLA TYPHIMURIUM, Strain/Indicator: TA100, Metabolic Activation: RAT LIVER S-9, AROCLOR 1254, Method: PREINCUBATION): inactive; negative
- mutagenic call (Test System: AMES SALMONELLA TYPHIMURIUM, Strain/Indicator: TA100, Metabolic Activation: RAT LIVER S-9, PHENOBARBITAL AND BETA-NAPHTHOFLAVONE, Method: PREINCUBATION): inactive; negative
- mutagenic call (Test System: AMES SALMONELLA TYPHIMURIUM, Strain/Indicator: TA100, Metabolic Activation: RAT, LIVER, S-9, AROCLOR 1254 (10%), Method: PREINCUBATION): inactive; negative
- mutagenic call (Test System: AMES SALMONELLA TYPHIMURIUM, Strain/Indicator: TA100, Metabolic Activation: RAT, LIVER, S-9, AROCLOR 1254, Method: PREINCUBATION): inactive; negative
- mutagenic call (Test System: AMES SALMONELLA TYPHIMURIUM, Strain/Indicator: TA100, Metabolic Activation: S-9, Method: STANDARD PLATE): active; positive
- mutagenic call (Test System: AMES SALMONELLA TYPHIMURIUM, Strain/Indicator: TA1535, Metabolic Activation: HAMSTER, LIVER, S-9, AROCLOR 1254 (10%), Method: PREINCUBATION): inactive; negative
- mutagenic call (Test System: AMES SALMONELLA TYPHIMURIUM, Strain/Indicator: TA1535, Metabolic Activation: HAMSTER, LIVER, S-9, AROCLOR 1254, Method: PREINCUBATION): inactive; negative
- mutagenic call (Test System: AMES SALMONELLA TYPHIMURIUM, Strain/Indicator: TA1535, Metabolic Activation: NONE, Method: PREINCUBATION): inactive; negative
- mutagenic call (Test System: AMES SALMONELLA TYPHIMURIUM, Strain/Indicator: TA1535, Metabolic Activation: RAT, LIVER, S-9, AROCLOR 1254 (10%), Method: PREINCUBATION): inactive; negative
- mutagenic call (Test System: AMES SALMONELLA TYPHIMURIUM, Strain/Indicator: TA1535, Metabolic Activation: RAT, LIVER, S-9, AROCLOR 1254, Method: PREINCUBATION): inactive; negative
- mutagenic call (Test System: AMES SALMONELLA TYPHIMURIUM, Strain/Indicator: TA1537, Metabolic Activation: RAT LIVER S-9, PHENOBARBITAL AND BETA-NAPHTHOFLAVONE, Method: PREINCUBATION): inactive; negative
- mutagenic call (Test System: AMES SALMONELLA TYPHIMURIUM, Strain/Indicator: TA1538, Metabolic Activation: HAMSTER, LIVER, S-9, Method: STANDARD PLATE): active; positive
- mutagenic call (Test System: AMES SALMONELLA TYPHIMURIUM, Strain/Indicator: TA1538, Metabolic Activation: RAT, LIVER, S-9, AROCLOR 1254, Method: STANDARD PLATE): active; positive
- mutagenic call (Test System: Ames Salmonella typhimurium, Strain/Indicator: TA98, Metabolic Activation: Rat, Liver, S-9, Sodium phenobarbitone, Method: Preincubation): active; positive, test conducted under both aerobic and anaerobic conditions.
- mutagenic call (Test System: Ames Salmonella typhimurium, Strain/Indicator: TA102, Metabolic Activation: None, Method: Preincubation): inactive; negative
- mutagenic call (Test System: Ames Salmonella typhimurium, Strain/Indicator: TA102, Metabolic Activation: Rat, Liver, S-9, Aroclor 1254, Method: Preincubation): inactive; negative
- mutagenic call (Test System: Ames Salmonella typhimurium, Strain/Indicator: TA1538, Metabolic Activation: Rat, Liver, S-9, Sodium phenobarbitone, Method: Preincubation): active; positive, test conducted under both aerobic and anaerobic conditions.
- mutagenic call (Test System: MOUSE LYMPHOMA, Strain/Indicator: L5178Y (TK+/TK-), Metabolic Activation: NONE, Method: SUSPENSION/PLATE): active; positive
- mutagenic call (Test System: MOUSE LYMPHOMA, Strain/Indicator: L5178Y (TK+/TK-), Metabolic Activation: RAT, LIVER, S-9, AROCLOR 1254, Method: SUSPENSION/PLATE): active; positive
